Source: paper PMC9866218, “Characterization and Chemical Synthesis of Cm39 (α-KTx 4.8): A Scorpion Toxin That Inhibits Voltage-Gated K^+ Channel KV1.2 and Small- and Intermediate-Conductance Ca^2+-Activated K^+ Channels KCa2.2 and KCa3.1” (Toxins, 2023)
Entries after “also recorded” stand apart in the source; their conditions may differ.

How the values were obtained:
hKCa3.1 = target: T1, hKCa3.1 (Homo sapiens, UniProt O15554); assay: Whole-cell patch-clamp, block of KCa3.1 current; type: cell-based
T1 construct: EGFP (vector pEGFP-C1); expressed in transfected cells; host or cells: CHO cells, transient transfection
T1 sequence (O15554 whole entry): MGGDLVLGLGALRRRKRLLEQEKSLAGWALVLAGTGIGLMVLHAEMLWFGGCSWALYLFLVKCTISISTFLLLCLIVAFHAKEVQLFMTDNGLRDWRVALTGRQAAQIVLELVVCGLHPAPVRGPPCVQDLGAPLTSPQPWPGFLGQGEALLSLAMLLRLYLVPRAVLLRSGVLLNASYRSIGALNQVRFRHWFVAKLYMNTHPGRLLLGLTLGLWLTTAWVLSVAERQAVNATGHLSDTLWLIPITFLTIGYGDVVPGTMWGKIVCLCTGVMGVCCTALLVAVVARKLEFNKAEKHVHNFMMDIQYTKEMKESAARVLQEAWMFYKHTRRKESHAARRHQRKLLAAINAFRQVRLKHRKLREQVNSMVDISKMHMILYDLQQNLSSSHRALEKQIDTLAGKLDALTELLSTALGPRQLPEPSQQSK
Excerpt: (§1) We, therefore, aimed at testing the pharmacological activity of sCm39 on a battery of various potassium and sodium ion channels. Among the tested channels were six members of human voltage-gated K^+ (hKV) channels from Shaker family, hKV1.1-hKV1.6 (Figure 3A–F) and three members of Ca^2+-activated potassium channel; hKCa2.2 (SK2, Figure 3I), the small-conductance Ca^2+-activated channel; hKCa3.1 (IKCa1, SK4. Figure 3J), the intermediate-conductance Ca^2+-activated channel expressed in T lymphocytes; and mKCa1.1 (BK, Slo1, MaxiK, Figure 3H), the large-conductance voltage- and Ca^2+-activated channel of mice. In addition, we also screened the effect of Cm39 on hKV11.1 (hERG1, Figure 3G), a voltage-gated cardiac K^+ channel, and two human voltage-gated sodium (hNaV) channels, hNaV1.4 (Figure 3K) and hNaV1.5 (Figure 3L), expressed in skeletal and cardiac muscles, respectively. These ion channels were heterologously expressed in the CHO or HEK cell lines except for KV1.3. Human peripheral T lymphocytes. They were stimulated with Phytohemagglutinin A (PHA) to increase the KV1.3 channel expression, and Ca^2+-free intracellular solution was used to avoid KCa3.1 channel activation. Appropriate depolarization protocols were used to record ionic currents in voltage-clamped cells (see Figure 3 insets and Material and Methods for details). Freshly dissolved sCm39 in extracellular solution was applied at 1 µM concentration on the cell using a custom-built micro-perfusion system at ~200 µL/min flow rate.
The whole-cell K^+ currents of CHO cells transiently expressing KCa2.2 or KCa3.1 channels were recorded sequentially by applying the 150 ms long voltage ramp to +50 mV from Vh of −120 mV every 10 s in the presence of control solution or upon perfusing the cell with different concentrations of sCm39. Normalized peak currents were calculated and plotted as function of time as shown in Figure 5A for KCa2.2 and in Figure 5C for KCa3.1 in the presence of the toxin at various concentrations and upon wash-out. […] RCF values were determined at equilibrium block in the presence of various concentrations of sCm39 and fitted with the Hill equation (see Materials and Methods for details).
Chinese hamster ovary (CHO) cells (gift from Yosef Yarden, Weizmann Institute of Science, Rehovot, Israel) were maintained by culturing in Dulbecco’s modified Eagle medium (DMEM, Gibco) supplemented with 2 mM L-glutamine, 10% FBS, 100 µg/mL streptomycin and 100 U/mL penicillin-g (Sigma-Aldrich) at a density of 0. 5−1×10^6 cells per mL in a humidified incubator at 37 °C and 5% CO2. Cells were passaged 3 times in a week following a 2–5 min incubation in 0.05% trypsin-EDTA solution at 37 °C. Cultures were used up to passage number 20. PCR-based tests were routinely used to detect mycoplasma infection, only mycoplasma-free cultures were used for experiments.
Those plasmids which lack a fluorescent tag were co-transfected with a plasmid encoding GFP. Transfections were performed at a GFP:channel DNA molar ratio of 1:10 using the Lipofectamine 2000 kit (Invitrogen) according to the manufacturer’s protocol. […] Generally, currents were recorded 24 to 48 h post transfection.
For the measurement of KV1.x, mKCa1.1 and NaV1.x currents the extracellular solution was composed of (in mM) 145 NaCl, 5 KCl, 2.5 CaCl2, 1 MgCl2, 10 HEPES and 5.5 glucose, pH 7.35.

hNaV1.5 = assay: Whole-cell patch-clamp, block of NaV1.5 current; type: cell-based, human; details: CHO cells
Excerpt: as §1, with “Appropriate depolarization protocols were used to record ionic currents in voltage-clamped cells (see Figure 3 insets and Material and Methods for details). Freshly dissolved sCm39 in extracellular solution was applied at 1 µM concentration on the cell using a custom-built micro-perfusion system at ~200 µL/min flow rate.” left out
Those plasmids which lack a fluorescent tag were co-transfected with a plasmid encoding GFP. […] Generally, currents were recorded 24 to 48 h post transfection. […]

CC[C@H](C)[C@@H]1NC(=O)[C@H](C)NC(=O)[C@H](C)NC(=O)[C@H](CCCCN)NC(=O)[C@@H]2CSSC[C@@H](C(=O)N[C@@H](Cc3ccc(O)cc3)C(=O)N[C@@H](Cc3ccc(O)cc3)C(=O)O)NC(=O)[C@H](CCCCN)NC(=O)[C@@H]3CSSC[C@H](NC(=O)[C@H](CCC(=O)O)NC(=O)[C@H](CO)NC(=O)[C@H](CO)NC(=O)[C@H](CO)NC(=O)[C@H](CCCCN)NC(=O)[C@@H](NC(=O)[C@H](CCCCN)NC(=O)[C@H](Cc4c[nH]cn4)NC(=O)[C@H](CC(N)=O)NC(=O)[C@@H](NC(=O)[C@H](Cc4ccccc4)NC(=O)[C@@H](N)[C@@H](C)O)[C@@H](C)CC)CSSC[C@H](NC(=O)[C@H](CCCCN)NC(=O)CNC(=O)[C@H](CO)NC(=O)[C@H](C)NC(=O)[C@H](CCCNC(=N)N)NC(=O)CNC1=O)C(=O)N[C@@H]([C@@H](C)CC)C(=O)N[C@@H](CC(N)=O)C(=O)N[C@@H](CO)C(=O)N[C@@H]([C@@H](C)O)C(=O)N3)C(=O)N[C@@H](CC(C)C)C(=O)N1CCC[C@H]1C(=O)N[C@@H](C)C(=O)N2 [Cm39]
reduction of current at equilibrium block (hKCa3.1; 1 µM, CHO cells, current at +48 mV, n = 3−5 (Figure 3M)): 86%
toxin association and dissociation kinetics (hKCa3.1; CHO cells): fast
toxin association and dissociation kinetics (hKCa3.1; CHO cells, listed as sCm39): very fast
Hill coefficient (H) (hKCa3.1; concentration-response of KCa3.1 block, CHO cells): 0.68
development and almost full recovery from equilibrium block (hKCa3.1; pulses separated by 10 s): 1–3 depolarization pulses
reversibility of KCa3.1 block (hKCa3.1; wash-out with toxin-free solution): fully reversible
inhibition (in words) (hNaV1.5; 1 μM): does not inhibit; also recorded: did not show any effect
decrease in current (hNaV1.5; 1 µM, 3−5 min, n = 3−5): < 3%
